Reference: the NIST ThermoML archive (doi:10.1021/acs.jced.9b00313)

Experiments:
[1] = xn = mol fraction of the nth substance listed; details: 86.5 kPa, Liquid; for viscosity: Capillary tube (Ostwald / Ubbelohde) method; for speed of sound: Frequency=3 MHz, Single path-length method; for mass density: Vibrating tube method
[2] = refractive index (Na D-line) (dimensionless); xn = mol fraction of the nth substance listed; details: 86.5 kPa, Liquid, Standard Abbe refractometry

OCCNCCO [diethanolamine] + C[N+](C)(C)CCO.[Cl-]
Details	mass density, [1] [kg/m3]	refractive index, [2]	speed of sound, [1] [m/s]	viscosity, [1] [mPa·s]
288.15 K, x2 = 0.125	1102.46	1.4892	1826.4	506.3
288.15 K, x2 = 0.167	1104.58	1.492	1839	528.22
293.15 K, x2 = 0.125	1099.49	1.4871	1812.5	498.57
293.15 K, x2 = 0.167	1101.42	1.4902	1825.7	520.58
298.15 K, x2 = 0.125	1096.43	1.485	1798.8	491.94
298.15 K, x2 = 0.167	1098.48	1.4877	1811.7	513.69
303.15 K, x2 = 0.125	1092.86	1.4831	1784	486.41
303.15 K, x2 = 0.167	1095.52	1.4861	1799.1	507.54

OCCN(CCO)CCO [triethanolamine] + C[N+](C)(C)CCO.[Cl-]
Details	mass density, [1] [kg/m3]	refractive index, [2]	speed of sound, [1] [m/s]	viscosity, [1] [mPa·s]
288.15 K, x2 = 0.125	1124.87	1.49	1715.5	522.91
288.15 K, x2 = 0.167	1125.76	1.4926	1734.7	552.67
293.15 K, x2 = 0.125	1122.22	1.4877	1703.1	515.18
293.15 K, x2 = 0.167	1122.89	1.4905	1723.7	545.03
298.15 K, x2 = 0.125	1119.73	1.4856	1691.2	508.55
298.15 K, x2 = 0.167	1120.12	1.4883	1712.2	538.14
303.15 K, x2 = 0.125	1116.88	1.4835	1678.5	503.02
303.15 K, x2 = 0.167	1117.58	1.4865	1700.5	531.99

OCCOCCOCCO [triethylene glycol] + C[N+](C)(C)CCO.[Cl-]
Details	mass density, [1] [kg/m3]	refractive index, [2]	speed of sound, [1] [m/s]	viscosity, [1] [mPa·s]
288.15 K, x2 = 0.125	1118.76	1.492	1641.2	144.03
288.15 K, x2 = 0.167	1120.95	1.498	1660.5	160.22
293.15 K, x2 = 0.125	1116.27	1.4912	1629.7	136.3
293.15 K, x2 = 0.167	1118.12	1.4971	1648.4	152.58
298.15 K, x2 = 0.125	1113.74	1.4887	1617.8	129.67
298.15 K, x2 = 0.167	1115.27	1.4947	1636.8	145.69
303.15 K, x2 = 0.125	1111.2	1.4872	1605.8	124.14
303.15 K, x2 = 0.167	1112.38	1.4928	1624.9	139.54
